Experimental data published in patent US12144864B2, “Tubulysins and protein-tubulysin conjugates” (Regeneron Pharmaceuticals, Inc., priority 2018, dated 2024).
Read-outs that look alike come from different tables or passages of the source.

Columns and labels:
C4-2 cells = assay: Cell-based killing assay of payloads (CellTiter-Glo), C4-2 cells; design: species or system human; settings: 5-day incubation; for IC50: Homo sapiens, C4-2, 120 h, average ± SD where replicates; for C4-2 % Kill: at maximum concentration tested (100 − % viable cells)
Protocol: (§1) To test the ability of the disclosed tubulysin payloads to kill human cell lines, an in vitro cytotoxicity assay was performed. In vitro cytotoxicity of the disclosed payloads, as well as reference compounds, were evaluated using the CellTiter-Glo Assay Kit (Promega, Cat #G7573), in which the quantity of ATP present is used to determine the number of viable cells in culture. For the assay, C4-2, HEK293, or T47D cells were seeded at 4000 cells/well on Nunclon white 96-well plates in complete growth medium (DME high glucose:Ham's F12 at 4:1, 10% FBS, 100 units/ml Penicillin, 100 ug/ml streptomycin, 53 ug/ml glutatmine, 10 ug/ml insulin, 220 ng/ml biotin, 12.5 pg/ml T3, 12.5 ug/ml Adenine, 4 ug/ml transferrin for C42 cells; DME high glucose, 10% FBS, 100 units/ml Penicillin, 100 ug/ml streptomycin, 53 ug/ml glutatmine for HEK293; RPMI, 10% FBS, 100 units/ml Penicillin, 100 ug/ml streptomycin, 53 ug/ml glutatmine, 10 ug/ml insulin, 10 mM HEPEs, 200 nM Sodium Pyruvate for T47D cells) and grown overnight at 37° C. in 5% CO2. For cell viability curves, 1:3 serially diluted payloads were added to the cells at final concentrations ranging from 100 nM to […], including a no treatment control group, and were then incubated for 5 days. After the 5-day incubation, cells were incubated at room temperature with 100 μL of CellTiter-Glo reagents for 10 minutes. Relative luminescence units (RLU) were determined on a Victor plate reader (PerkinElmer). The IC50 values were determined from a four-parameter logistic equation over a 10-point response curve (GraphPad Prism). All IC50 values are expressed in molar (M) concentration. The percent cell killing (% kill) at the maximum concentration tested was estimated from the following formula (100−% viable cells). Averages±standard deviation (SD) are included where replicate experiments were performed.

HCT15 cells = assay: cells; assay type: cell-based, human; settings: HCT15 cells; for HCT-15 + verapamil % Kill / HCT-15 % Kill: maximum % cell killing
Protocol: as §1
In vitro cytotoxicity of the disclosed payloads as well as reference compounds were evaluated similarly as described above except using 1000 HCT15 cells, a colorectal carcinoma cell line, in growth medium (RPMI, 10% FBS, 100 units/ml Penicillin, 100 ug/ml streptomycin, 53 ug/ml glutatmine) with or without 5 ug/mL of Verapamil.

MES-SA/MX2 cells = assay: Cytotoxicity in panel of MDR cell lines, MES-SA/MX2 (72 h and 144 h); assay type: cell-based, human; settings: for IC50: Homo sapiens
Protocol: as §1
(§2) To further test the ability of the disclosed tubulysin payloads, a cytotoxicity assay was performed using a panel of multidrug resistant (MDR) cell lines. In vitro cytotoxicity of the disclosed payloads as well as reference compounds were similarly evaluated as described above except using HCT-15 cells, a colorectal carcinoma cell line; H69AR, a doxorubicin resistant MDR derivative of the small cell lung cancer carcinoma cell line NCI-H69; MES-SA/MX2, a mitoxantrone resistant MDR derivative of the uterine sarcoma cell line MES-SA; and HL60/MX2, a mitoxantrone resistant MDR derivative of the acute promyelocytic leukemia cell line HL60. In these assays, cytotoxicity was evaluated in normal growth media (RPMI, 10% FBS, 100 units/ml Penicillin, 100 ug/ml streptomycin, and 53 ug/ml glutatmine for HCT-15 and HL60/MX2; RPMI, 20% FBS, 100 units/ml Penicillin, 100 ug/ml streptomycin, and 53 ug/ml glutatmine for H69-AR; Waymouths's:McCoy's (1:1), 10% FBS, 100 units/ml Penicillin, 100 ug/ml streptomycin, and 53 ug/ml glutatmine for MES-SA/MX2) with 1000 cells per well following 72 h and 144 h incubation with payloads.

HCT-15 cells = assay: Cytotoxicity in panel of MDR cell lines, HCT-15 (72 h and 144 h); assay type: cell-based, human; settings: for IC50: Homo sapiens
Protocol: as §1, §2

H69AR cells = assay: Cytotoxicity in panel of MDR cell lines, H69AR (72 h and 144 h); assay type: cell-based, human; settings: for IC50: Homo sapiens
Protocol: as §1, §2

HL60/MX2 cells = assay: Cytotoxicity in panel of MDR cell lines, HL60/MX2 (72 h and 144 h); assay type: cell-based, human; settings: for IC50: Homo sapiens
Protocol: as §1, §2

[1] = with 5 ug/mL Verapamil, read-out: HCT-15 + verapamil IC50
[2] = Homo sapiens, HCT-15, without Verapamil, read-out: HCT-15 IC50

| SMILES | IC50 (C4-2 cells) | C4-2 % Kill (C4-2 cells) | HCT-15 + verapamil % Kill (HCT15 cells; with 5 ug/mL Verapamil) | IC50 (HCT15 cells; [1]) | HCT-15 % Kill (HCT15 cells; without Verapamil) | IC50 (HCT15 cells; [2]) | further results |
| --- | --- | --- | --- | --- | --- | --- | --- |
| CC[C@H](C)[C@H](NC(=O)[C@H]1CCCCN1C)C(=O)N(CCCCc1cn(CC(=O)O)nn1)[C@H](C[C@@H](OC(C)=O)c1nc(C(=O)N[C@@H](Cc2ccc(N)cc2)CC(C)(C)C(=O)O)cs1)C(C)C [IVm, (S)-4-(2-((1R,3R)-1-acetoxy-3-((2S,3S)—N-(4-(1-(carboxymethyl)-1H-1,2,3-triazol-4-yl)butyl)-3-methyl-2-((R)-1-methylpiperidine-2-carboxamido)pentanamido)-4-methylpentyl)thiazole-4-carboxamido)-5-(4-aminophenyl)-2,2-dimethylpentanoic acid] | > 100 nM | 8.9% | – | – | – | – | – |
| CC[C@H](C)[C@H](NC(=O)[C@H]1CCCCN1C)C(=O)N(CCCCc1cn(CCCC(=O)O)nn1)[C@H](C[C@@H](OC(C)=O)c1nc(C(=O)N[C@@H](Cc2ccc(N)cc2)CC(C)(C)C(=O)O)cs1)C(C)C [IVn, (S)-4-(2-((1R,3R)-1-Acetoxy-3-((2S,3S)—N-(4-(1-(3-carboxypropyl)-1H-1,2,3-triazol-4-yl)butyl)-3-methyl-2-((R)-1-methylpiperidine-2-carboxamido)pentanamido)-4-methylpentyl)thiazole-4-carboxamido)-5-(4-aminophenyl)-2,2-dimethylpentanoic acid] | > 100 nM | 30.2% | 72.4% | > 30 nM | 30.9% | > 30 nM | – |
| [2H]c1cc(C[C@@H](CC(C)(C)C(=O)O)NC(=O)c2csc([C@@H](C[C@H](C(C)C)N(CCCCC#C)C(=O)[C@@H](NC(=O)[C@H]3CCCCN3C)[C@@H](C)CC)OC(C)=O)n2)cc([2H])c1N [IVr, (S)-4-(2-((1R,3R)-1-Acetoxy-3-((2S,3S)—N-(hex-5-yn-1-yl)-3-methyl-2-((R)-1-methylpiperidine-2-carboxamido)pentanamido)-4-methylpentyl)thiazole-4-carboxamido)-5-(4-aminophenyl-3,5-d2)-2,2-dimethylpentanoic acid] | – | – | 99% | 0.0624 nM | 99.1% | 0.0893 nM | MES-SA/MX2 % Kill 72 h (MES-SA/MX2 cells; 72 h incubation): 99.1%; MES-SA/MX2 % Kill 144 h (MES-SA/MX2 cells; 144 h incubation): 100%; IC50 (MES-SA/MX2 cells; 72 h incubation, read-out: MES-SA/MX2 IC50 72 h): 0.151 nM; IC50 (MES-SA/MX2 cells; 144 h incubation, read-out: MES-SA/MX2 IC50 144 h): 0.176 nM; HCT-15 % Kill 72 h (HCT-15 cells; 72 h incubation): 98%; HCT-15 % Kill 144 h (HCT-15 cells; 144 h incubation): 99.7%; IC50 (HCT-15 cells; 72 h incubation, read-out: HCT-15 IC50 72 h): 0.0401 nM; IC50 (HCT-15 cells; 144 h incubation, read-out: HCT-15 IC50 144 h): 0.0621 nM; H69AR % Kill 72 h (H69AR cells; 72 h incubation): 96.7%; H69AR % Kill 144 h (H69AR cells; 144 h incubation): 99%; IC50 (H69AR cells; 72 h incubation, read-out: H69AR IC50 72 h): 0.137 nM; IC50 (H69AR cells; 144 h incubation, read-out: H69AR IC50 144 h): 0.211 nM; HL60/MX2 % Kill 72 h (HL60/MX2 cells; 72 h incubation): 98.7%; HL60/MX2 % Kill 144 h (HL60/MX2 cells; 144 h incubation): 100%; IC50 (HL60/MX2 cells; 72 h incubation, read-out: HL60/MX2 IC50 72 h): < 0.015 nM; IC50 (HL60/MX2 cells; 144 h incubation, read-out: HL60/MX2 IC50 144 h): < 0.015 nM |
| CCCCCCN(C(=O)[C@@H](NC(=O)[C@H]1CCCCN1C)[C@@H](C)CC)[C@H](C[C@@H](OC(C)=O)c1nc(C(=O)N[C@H](Cc2ccc(N)c(F)c2)CC(C)(C)C(=O)O)cs1)C(C)C [IVvA, 4-({2-[(1R,3R)-1-(Acetyloxy)-3-[(2S,3S)—N-hexyl-3-methyl-2-{[(2R)-1-methylpiperidin-2-yl]formamido}pentanamido]-4-methylpentyl]-1,3-thiazol-4-yl}formamido)-5-(4-amino-3-fluorophenyl)-2,2-dimethylpentanoic acid] | 10.9 nM | 96.7% | 97.1% | 1.97 nM | 99.2% | 5.27 nM | – |
| CCCCCCN(C(=O)[C@@H](NC(=O)[C@H]1CCCCN1C)[C@@H](C)CC)[C@H](C[C@@H](OC(C)=O)c1nc(C(=O)N[C@@H](Cc2ccc(O)c(N)c2)CC(C)(C)C(=O)O)cs1)C(C)C [IVw, (S)-4-(2-((1R,3R)-1-Acetoxy-3-((2S,3S)—N-hexyl-3-methyl-2-((R)-1-methylpiperidine-2-carboxamido)pentanamido)-4-methylpentyl)thiazole-4-carboxamido)-5-(3-amino-4-hydroxyphenyl)-2,2-dimethylpentanoic acid] | > 100 nM | 27.9% | 98.3% | 4.49 nM | 95.9% | 9.73 nM | – |
| CCCCCCN(C(=O)[C@@H](NC(=O)[C@H]1CCCCN1C)[C@@H](C)CC)[C@H](C[C@@H](OC(C)=O)c1nc(C(=O)N[C@@H](Cc2ccc(N)cc2)CC(C)(C)C(=O)NN)cs1)C(C)C [IVy, (1R,3R)-1-(4-((S)-1-(4-Aminophenyl)-5-hydrazinyl-4,4-dimethyl-5-oxopentan-2-ylcarbamoyl)thiazol-2-yl)-3-((2S,3S)—N-hexyl-3-methyl-2-((R)-1-methylpiperidine-2-carboxamido)pentanamido)-4-methylpentyl acetate] | 1.82 nM | 94.4% | – | – | – | – | – |
| C#CCCCON(C(=O)[C@@H](NC(=O)[C@H]1CCCCN1C)[C@@H](C)CC)[C@H](C[C@@H](OC(C)=O)c1nc(C(=O)N[C@@H](Cc2ccc(O)cc2)CC(C)(C)C(=O)O)cs1)C(C)C [IX, (4S)-4-({2-[(1R,3R)-1-(Acetyloxy)-4-methyl-3-[(2S,3S)-3-methyl-2-{[(2R)-1-methylpiperidin-2-yl]formamido}-N-(pent-4-yn-1-yloxy)pentanamido]pentyl]-1,3-thiazol-4-yl}formamido)-5-(4-hydroxyphenyl)-2,2-dimethylpentanoic acid] | 0.054 nM | – | – | – | – | – | IC50 (HCT15 cells; with 5 ug/mL Verapamil, read-out: HCT-15 + verapamil IC50 (value in brackets)): 0.162 nM; IC50 (HCT15 cells; Homo sapiens, HCT-15, without Verapamil, read-out: HCT-15 IC50 (value in brackets)): 0.171 nM |
| CCCCCCON(C(=O)[C@@H](NC(=O)[C@H]1CCCCN1C)[C@@H](C)CC)[C@H](C[C@@H](OC(=O)NCCC)c1nc(C(=O)N[C@@H](Cc2ccc(O)cc2)C[C@H](C)C(=O)O)cs1)C(C)C [VIc, (2S,4R)-5-(4-Hydroxyphenyl)-4-(2-((7R,9R)-9-isopropyl-10-((2S,3S)-3-methyl-2-((R)-1-methylpiperidine-2-carboxamido)pentanoyl)-5-oxo-6,11-dioxa-4,10-diazaheptadecan-7-yl)thiazole-4-carboxamido)-2-methylpentanoic acid] | 1.33 nM | 95.5 ± 1.8% | 98.8% | 0.286 nM | 94% | 13.2 nM | – |
| C#CCCCON(C(=O)[C@@H](NC(=O)[C@H]1CCCCN1C)[C@@H](C)CC)[C@H](C[C@@H](OC(=O)NCC)c1nc(C(=O)N[C@@H](Cc2ccc(NC(C)=O)cc2)CC(C)(C)C(=O)O)cs1)C(C)C [VIg, (4S)-5-(4-Acetamidophenyl)-4-({2-[(1R,3R)-1-[(ethylcarbamoyl)oxy]-4-methyl-3-[(2S,3S)-3-methyl-2-{[(2R)-1-methylpiperidin-2-yl]formamido}-N-(pent-4-yn-1-yloxy)pentanamido]pentyl]-1,3-thiazol-4-yl}formamido)-2,2-dimethylpentanoic acid] | > 100 nM | 10.9% | – | – | – | – | – |
